Measured values taken from paper PMC10337483 (Biochemistry, 2022).
Entries after “also recorded” stand apart in the source; their conditions may differ.

Tests used:
[1] = biological target: CYP3A4 (Homo sapiens, UniProt P08684); assay: Spectral
[2] = after 0.5 h; cited from earlier work
[3] = tested on: BV2 microglial cells stimulated with LPS; assay: IL-6 level by ELISA in BV2 microglial cells stimulated with LPS; format: cell-based; conditions: for effect on IL-6 level (pro-inflammatory activity): 0–5 μM, LPS-stimulated BV2, in words; for IL-6 expression (ELISA): 5 μM, LPS-stimulated BV2
[4] = tested on: BV2 microglial cells stimulated with LPS; assay: IL-10 level by ELISA in BV2 microglial cells stimulated with LPS; format: cell-based; conditions: for expression of the anti-inflammatory cytokines: 5 μM, in words; for effect on IL-10 levels: 0–5 μM, LPS-stimulated BV2, in words; for levels of IL-10 (ELISA): LPS-stimulated BV2, 5 μM implied
[5] = format: in vivo, mouse; conditions: for concentration of metabolite formed, detected in plasma: mice given CBG 20 mg/kg, after 0.5 h
[6] = tested on: CYP2J2, 3A4, 2D6, 2C9 and 2C8; format: in vitro ADME; conditions: human
[7] = tested on: BV2 microglial cells stimulated with LPS; assay: Nitric oxide level in BV2 microglial cells stimulated with LPS; format: cell-based; conditions: highest reduction among analogs (Figure S8)
[8] = tested on: CYP2C8; conditions: human
[9] = biological target: T1, CYP2D6 (Homo sapiens, UniProt P10635); assay: biochemical
[10] = biological target: T1, CYP2D6
[11] = tested on: CYP2C8; assay: Spectral; conditions: presence versus absence of CBG
[12] = tested on: human liver microsomes (HLM); assay: CBG metabolism by human liver microsomes, targeted mass spectrometry; format: in vitro ADME

T1 sequence (P10635 whole entry): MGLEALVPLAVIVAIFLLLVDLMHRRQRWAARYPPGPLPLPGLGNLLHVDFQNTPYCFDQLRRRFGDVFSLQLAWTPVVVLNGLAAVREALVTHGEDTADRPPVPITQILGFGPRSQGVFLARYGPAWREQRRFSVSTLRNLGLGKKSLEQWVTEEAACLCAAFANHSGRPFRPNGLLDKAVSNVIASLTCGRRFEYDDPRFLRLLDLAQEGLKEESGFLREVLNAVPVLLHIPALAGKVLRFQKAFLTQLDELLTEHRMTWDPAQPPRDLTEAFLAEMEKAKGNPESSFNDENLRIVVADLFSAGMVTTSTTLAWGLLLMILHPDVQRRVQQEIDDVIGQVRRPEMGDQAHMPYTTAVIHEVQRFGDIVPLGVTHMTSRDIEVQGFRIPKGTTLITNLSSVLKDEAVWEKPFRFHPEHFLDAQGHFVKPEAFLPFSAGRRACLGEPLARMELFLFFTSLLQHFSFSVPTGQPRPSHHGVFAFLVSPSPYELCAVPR
Sequence of CYP3A4 (P08684 whole entry): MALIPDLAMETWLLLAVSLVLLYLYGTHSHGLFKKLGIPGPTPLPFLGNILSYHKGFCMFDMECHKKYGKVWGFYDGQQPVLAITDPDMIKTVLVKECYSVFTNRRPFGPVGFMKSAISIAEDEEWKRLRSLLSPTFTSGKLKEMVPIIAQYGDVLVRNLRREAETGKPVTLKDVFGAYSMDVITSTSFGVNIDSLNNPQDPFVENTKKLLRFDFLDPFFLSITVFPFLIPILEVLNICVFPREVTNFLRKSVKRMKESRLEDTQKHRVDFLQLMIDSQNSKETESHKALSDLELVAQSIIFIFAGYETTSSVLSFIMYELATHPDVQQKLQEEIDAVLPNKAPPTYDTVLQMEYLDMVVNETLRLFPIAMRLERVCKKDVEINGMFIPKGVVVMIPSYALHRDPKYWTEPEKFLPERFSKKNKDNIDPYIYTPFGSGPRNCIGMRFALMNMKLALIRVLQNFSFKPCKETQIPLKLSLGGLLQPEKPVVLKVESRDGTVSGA

## C[C@]12CC[C@H]3[C@@H](CCC4=CC(=O)CC[C@@]43C)[C@@H]1CC[C@@H]2O [TST, testosterone, reference compound]
[1]; direct binding, TST versus CBG
  TST binds more strongly as compared to CBG: ~5 times

## CCCCCc1cc(O)c2c(c1)OC(C)(C)[C@@H]1CCC(C)=C[C@@H]21 [THC, Δ^9-tetrahydrocannabinol]
[2]
  level in human blood plasma: ~ 0.06 μM

## CCCCCc1cc(O)c(CC(O)C(C)(O)CCC=C(C)C)c(O)c1 (stereo not shown) [2′,3′-dihydroxy-CBG, 2′,3′-dihydroxy CBG]
[3]
  effect on IL-6 level (pro-inflammatory activity): concentration dependent reduction in IL-6 level
[4]
  expression of the anti-inflammatory cytokines: maximum expression of the anti-inflammatory cytokines

## CCCCCc1cc(O)c(C/C=C(\C)CC/C=C(\C)CCC=C(C)C)c(O)c1 [sCBG, sesqicannabigerol]
[3]
  effect on IL-6 level (pro-inflammatory activity): concentration dependent reduction in IL-6 level
[3]; inflammatory cytokines in BV2 model, in words
  bioactivity compared to CBG metabolites having polar functional groups: does not significant bioactivity

## CCCCCc1cc(O)c(C/C=C(\C)CCC=C(C)C)c(O)c1 [CBG, Cannabigerol]
[5]; female, mouse, in vivo
  concentration at 0.5 h: 500 to 700 nM
  concentration at 2 h: ~50 nM
[6]
  Km for formation of cyclo-CBG, CYP2J2 relative to 2D6 and 2C8: 1.5–2 times
[7]
  % NO level: 64.1±5.9%
[3]
  effect on IL-6 level (pro-inflammatory activity): concentration dependent reduction in IL-6 level
  IL-6 expression (ELISA): 414.2±75.2
[8]
  Ks of CBG higher than for CYP2J2: ~3 times
[9]
  Ki: 10 to 20 µM
[10]
  Ks for CBG binding lower than for TDZ binding: ~3.5 times
  Ks of CBG higher than for CYP2J2: ~3 times
[4]
  effect on IL-10 levels: concentration dependent increase in IL-10 levels
  expression of the anti-inflammatory cytokines: maximum expression of the anti-inflammatory cytokines
  levels of IL-10 (ELISA): 236.03±12.35
[1]
  Ki: 10 to 20 µM

## CC1=C(/C=C/C(C)=C/C=C/C(C)=C/C(=O)O)C(C)(C)CCC1 [RTA, all trans-retinoic acid]
[11]
  increase of Ks on addition of RTA to CBG-bound CYP: ~ 1.3 times
  increase of ΔAmax on addition of RTA to CBG-bound CYP: ~ 1.2 times

## C=C(C)[C@@H]1CCC(C)=C[C@H]1c1c(O)cc(CCCCC)cc1O [CBD, cannabidiol]
[2]
  level in human blood plasma: ~ 0.14 μM

## CCCCCc1cc(O)c(C/C=C(\C)CCC(O)C(C)(C)O)c(O)c1 (stereo not shown) [carmagerol, 6′,7′-dihydroxy CBG]
[7]
  % NO level: 60.0±6.03%
[3]
  effect on IL-6 level (pro-inflammatory activity): lowering in IL-6 expression; also recorded: highest reduction in the pro-inflammatory activity
  IL-6 expression (ELISA): 307.8±159.1
[4]
  effect on IL-10 levels: concentration dependent increase in IL-10 levels
  levels of IL-10 (ELISA): 159.5±16.7

## CCCCCc1cc(O)c(C/C=C(\C)CCC2OC2(C)C)c(O)c1 (stereo not shown) [6′,7′-epoxy-CBG]
[5]
  concentration of metabolite formed, detected in plasma: 7.5 nM
[3]
  effect on IL-6 level (pro-inflammatory activity): lowering in IL-6 expression
[4]
  effect on IL-10 levels: concentration dependent increase in IL-10 levels

## CCCCCc1cc(O)c2c(c1)OC(C)(CCC=C(C)C)C(O)C2 (stereo not shown) [cyclo-CBG]
[12]
  amount of cyclo-CBG produced relative to 6′,7′-epoxy-CBG: ~ 100 fold
[5]
  concentration of metabolite formed, detected in plasma: 1500 nM
[5]; plasma of CBG treated mice
  amount of cyclo-CBG relative to 6′,7′-epoxy-CBG in plasma: ~ 100 times
